Experiments:
HMLER CD24^low cells [1] = experiment: Annexin V/PI assay; type: cell-based, human; conditions: 0.5 μM, 72 h
Description: Annexin V/PI assay. Cells were treated as indicated. After treatment, cell death was quantified using Annexin V-FITC/Propidium Iodide (PI) assay according to the manufacturer's protocol (FITC Annexin V Apoptosis Detection Kit II, 556570, BD Pharmingen™) and analyzed by a LSRFortessa™ flow cytometer (BD Bioscience, San Jose, Calif.). The data were processed using Cell Quest software (BD Biosciences).

[2] = system: U2OS, HMLER CD24^low, and iCSCL-10A2 cells; experiment: Lysosomal ROS in cells; type: cell-based; conditions: all cell lines
iCSCA2 cells = experiment: Immunoblotting of iron homeostasis regulatory proteins; type: cell-based
Description: (§1) Immunoblotting. Cells were treated as indicated, then washed twice with PBS and lysed with 2× Laemmli buffer. Cell extracts were heated at 95° C. for 5 min, sheared through a 26-gauge needle and quantified with a Nanodrop 2000 (Thermo Scientific). Protein lysates (˜100 μg) were resolved by SDS-PAGE electrophoresis and transferred onto PVDF membranes (Amersham). Membranes were blocked with 5% BSA, 0.1% Tween-20/TBS for 1 h. The blots were then probed with the relevant primary antibodies in 5% BSA, 0.1% Tween-20/TBS at 4° C. overnight with gentle agitation. Membranes were washed with 0.1% Tween-20/TBS for 30 min and were incubated with secondary antibodies for 1 h at RT. Antigens were detected by ECL (Amersham). Imaging was performed using a ChemiDoc™ XRS+ System (Biorad).

HMLER CD24^low cells [3] = experiment: Lysosomal membrane permeabilization assay; type: cell-based, human; conditions: 48 h
Description: Lysosomal membrane permeabilization assay. Lysosomal membrane permeabilization (LMP) was assessed by monitoring the release of FITC-Dextran (FD10S, 10 kDa, Sigma) from lysosomes. In brief, cells were incubated with 1 mg/mL FITC-Dextran for 2 h at 37° C. Cells were washed, chased with culture medium for 2 h and treated as indicated for 48 h or with CQ (positive control) for 3 h. Cells were then fixed with 2% formaldehyde/PBS, washed with PBS, mounted and acquired with a 60×APO TIRF oil immersion objective of Nipkow Spinning Disk confocal system.

[4] = system: HMLER CD24^low and iCSCL-10A2 cells; experiment: Intracellular GSH level quantification; type: cell-based; conditions: 0.5 μM
Description: Intracellular GSH level quantification. Cells were treated with Sal or AM5 (0.5 μM) as indicated, then harvested and counted. The intracellular GSH level was measured using a commercial kit (ab205811, Abcam) according to the manufacturer's protocol.

[5] = system: non-CSC (HMLER CD24^high ID2) cells; experiment: Immunoblotting of iron homeostasis regulatory proteins; type: cell-based, human
Description: as §1

[6] = system: patient-derived xenografts (PDX 1 and 2); type: in vivo, NOD/SCID mice; conditions: intra-peritoneal; for ratio of residual ALDH+ cells / tumor growth: 4 weeks
From the text: Patient derived xenografts (PDXs). PDXs were established as previously described in Charafe-Jauffret et al., Cancer Res. 73, 7290-7300 (2013) from tissue samples collected prospectively at the Institut Paoli-Calmettes (IPC). Samples of human origin and associated data were obtained from the IPC/CRCM Tumor Bank that operates under authorization #AC-2007-33 granted by the French Ministry of Higher Education and Research. Before scientific use of samples and data, patients were appropriately informed and asked to consent in writing, in compliance with French and European regulations. The project was approved by the IPC Institutional Review Board. Cells from 2 different patient-derived xenografts (PDX 1 and 2) were transplanted orthotopically into fat pads of 4-week-old female non-obese diabetic/severe combined immunodeficient (NOD/SCID) mice (NOD.CB17-Prkdcscid/J, Charles River France) after mechanical treatment and enzymatic digestion using collagenase/hyaluronidase (StemCell Technologies) to generate single-cell suspension suitable for implantation in vivo. PDXs were primarily established as previously described in Caraft-Jauffret et al., and evaluated for ALDEFLUOR-positive CSCs. We injected single cancer cells into fat pads of NOD/SCID mice and monitored tumor growth. When tumor size reached approximately 150 mm^3, Sal and AM5 treatments were performed as indicated above for FIGS. 14 and 15. Tumor growth was compared with that of docetaxel and placebo-treated controls. After 4 weeks of treatment, the animals were sacrificed and the proportion of ALDEFLUOR-positive CSCs was measured in each residual tumor. All animal studies were approved by the French Ministry of Higher Education and Research (authorization number D130554) and ethical committee (number 14), of Aix-Marseille Université. No randomization was used and experimenters were blinded to drug treatments and tissue analyses.
Aldefluor assay. The analysis was processed on single-cell suspension from the PDXs obtained as described above. The ALDEFLUOR Kit (Stemcell™ Technologies) was used to isolate the population with high aldehyde dehydrogenase enzymatic activity using an LSR2 cytometer (Becton Dickinson Biosciences), as previously described in Charafe-Jauffret et al. To eliminate cells of mouse origin from the PDXs, we used staining with an anti-H2Kd antibody (BD Biosciences, 1:200, 20 min on ice) followed by staining with a secondary antibody labeled with phycoerythrin (PE; Jackson Laboratories, 1:250, 20 min on ice).

HMLER CD24^low cells [7] = experiment: Immunoblotting of iron homeostasis regulatory proteins; type: cell-based, human; conditions: for level of autophagy marker protein LC3-II: 24 h; for levels of IRP2, TfR and ferritin: immunoblotting
[8] = system: HMLER CD24^low and iCSCL-10A2 cells; experiment: Lipid ROS measurements (Bodipy-C11); type: cell-based; conditions: 0.5 μM, 48 h
Description: Lipid ROS measurements. Cells were treated with Sal or AM5 (0.5 μM) as indicated. Then, cells were trypsinized and washed with PBS. Subsequently, cells were incubated with Bodipy-C11® (D3861, Thermo Fisher Scientific, 2 μM) at 37° C. for 60 min. Next, cells were washed twice with PBS. […] The data were processed using Cell Quest software (BD Biosciences) and FlowJo software (FLOWJO, LLC). For cell imaging, cells were treated as indicated in the main figure (Bodipy-C11®, 1 μM, 1 h), then fixed with formaldehyde (2% in PBS, 12 min) and analyzed by fluorescence microscopy (ex. 488 nm).

Row | SMILES | form of cell death (HMLER CD24^low cells [1]) | lysosomal ROS [2] | levels of IRP2, TfR and ferritin (iCSCA2 cells) | lysosomal membrane permeabilization (release of lysosomal dextran) (HMLER CD24^low cells [3]) | endogenous levels of GSH [4] | level of ferritin [5] | response of IRP2 and TfR levels [5] | toxicity at effective doses [6] | ratio of residual ALDH+ cells [6] | tumor growth [6] | level of autophagy marker protein LC3-II (HMLER CD24^low cells [7]) | levels of IRP2, TfR and ferritin (HMLER CD24^low cells [7]) | lipid ROS (Bodipy-C11 staining) [8]
1 | C#CCN[C@@H]1C=C[C@]2(O[C@H]([C@@H](CC)C(=O)[C@@H](C)[C@@H](O)[C@H](C)C3O[C@@H](C(CC)C(=O)O)CC[C@@H]3C)[C@@H](C)C[C@H]2C)O[C@@]12CC[C@@](C)([C@H]1CC[C@](O)(CC)[C@H](C)O1)O2 (some centres unmarked) [AM5, Sal-Propargylamine] | ferroptosis | significant increase in lysosomal ROS | response characteristic of a cytosolic depletion of iron | induced a permeabilization of the lysosomal membrane | diminution of endogenous levels of the ROS scavenger glutathione (GSH) | reduced the level of ferritin | did not observe a response characteristic of a cytosolic depletion of iron | without detectable toxicity | reduced ratio of ALDH+ cells | reduce tumor growth | increased | increased levels of iron-responsive element-binding protein 2 (IRP2) and transferrin receptor (TfR) along with reduced levels of ferritin | presence of lipid peroxidation
2 | CC[C@@H](C(=O)[C@@H](C)[C@@H](O)[C@H](C)[C@@H]1O[C@@H]([C@@H](CC)C(=O)O)CC[C@@H]1C)[C@H]1O[C@]2(C=C[C@@H](O)[C@]3(CC[C@@](C)([C@H]4CC[C@](O)(CC)[C@H](C)O4)O3)O2)[C@H](C)C[C@@H]1C [Sal, salinomycin, reference compound] | ferroptosis | significant increase in lysosomal ROS | response characteristic of a cytosolic depletion of iron | induced a permeabilization of the lysosomal membrane | diminution of endogenous levels of the ROS scavenger glutathione (GSH) | reduced the level of ferritin | did not observe a response characteristic of a cytosolic depletion of iron | without detectable toxicity | reduced ratio of ALDH+ cells | reduce tumor growth | increased | increased levels of iron-responsive element-binding protein 2 (IRP2) and transferrin receptor (TfR) along with reduced levels of ferritin | presence of lipid peroxidation
